A word on the IC50: it is the concentration that inhibits the measured activity by half. A high value points to weaker potency in that assay. As usually defined, the IC90 is the concentration needed for an effect of 90%. Read a low IC90 as greater potency.

≈ marks a conversion by molar mass, not a printed value.

For this assay, the system named is Leishmania donovani. Nature of the assay: Antileishmanial activity against promastigote form of Leishmania donovani after 48 hrs by Alamar Blue assay. Type of assay: functional, organism-based. In general terms: Resazurin is reduced to fluorescent resorufin, in cell work by metabolically active cells.
`C/C(=C\CO)CC(C)CC(C)CCCCCCCCC(C)C` (configuration not stated) displayed an IC50 of 9 µg/mL (≈ 29 µM) and an IC90 of 30 µg/mL (≈ 96.6 µM).
In turn, `CC(=O)OC/C=C(\C)CC(C)CC(C)CCCCCCCCC(C)C` (configuration not stated) registered an IC50 of 2 µg/mL (≈ 5.67 µM) and an IC90 of 6 µg/mL (≈ 17 µM).
The corresponding values for `C[C@@H]1[C@H](O)[C@@H](C)/C=C/C=C/C=C/C=C/C=C/C=C/C=C/[C@H](O[C@@H]2O[C@H](C)[C@@H](O)[C@H](N)[C@@H]2O)C[C@@H]2O[C@](O)(C[C@@H](O)C[C@@H](O)[C@H](O)CC[C@@H](O)C[C@@H](O)CC(=O)O[C@H]1C)C[C@H](O)[C@H]2C(=O)O` [AMPHOTERICIN B] are 0.47 µg/mL (≈ 0.509 µM) and 0.65 µg/mL (≈ 0.703 µM).
`N=C(N)c1ccc(OCCCCCOc2ccc(C(=N)N)cc2)cc1` [PENTAMIDINE] showed an IC90 of 2.03 µg/mL (≈ 5.96 µM).
